Literature values as cited in publication PMC4642890 (Bioorganic & medicinal chemistry letters, 2015).

Tested on: neuropathic pain
Settings: rodent model

Row | Substance | effect on neuropathic pain | opioid-induced tolerance | reward liability
1 | Tyr^1-DAla^2-Gly^3-Phe^4-Met^5-Pro^6-Leu^7-Trp^8-NH-[3’,5’-Bzl(CF3)2] [TY027] | reverse neuropathic pain | no sign of opioid-induce tolerance | no development of reward liability
2 | Tyr^1-DAla^2-Gly^3-Phe^4-Met^5-Pro^6-Leu^7-Trp^8-O-[3’,5’-Bzl(CF3)2] [TY005] | reverse neuropathic pain | no sign of opioid-induce tolerance | no development of reward liability
